Experiments:
[1] = tested on: gastric acid secretion; experiment: Inhibition of gastric acid secretion in Shay rats (pylorus ligation); assay type: in vivo, male Wistar rats; conditions: Rattus norvegicus, 2 h, intraduodenal, two hours after pylorus ligation; for inhibition in vivo at 40 mg/kg: i.d., read-out: Percentage inhibition of gastric acid secretion
Excerpt: Method of Shay [Shay, H.; Komarov, S. A.; Feis, S. S.; Merange, D.; Grvenstein, M.; Siplet, H.; Gastroenterology, 5, 43 (1945)--Visscher, F. E.; Seay, P. H.; Taxelaar, A. P.; Veldkamp, W.; Vander Brook, M. J.; J. Pharmac. Exp. Ther., 110, 188 (1954)--"Animal Experiments in Pharmacological Analysis", F. R. Domer; C. C. Thomas Pub., Springfield, Ill., USA, 1970, p. 140].
In this test, male Wistar rats weighing 200 to 250 grams are used, the animals being maintained fasted from the day preceding that of the trail, with access to water ad libitum. A minimum of 4 animals is used in each batch.
The rats are anesthetized with ethyl ether, laporotomy is performed and the pylorus is ligated, and the abdominal incision is then sutured. The administration of the products, with the vehicle for the control batch, is performed intraduodenally (i.d.) before the abdominal incision is sutured. The dose administered for the first trail is 40 mg/kg, and the fifty percent effectove dose (ED50) i.d. is also determined in a second trial. The vehicle used is 5% w/v gum arabic in double-distilled water.
Two hours after ligation of the pyrolus, the rats are sacrificed by prolonged anesthesia with ethyl ether, and the volume of the gastric juice is measured and the total acidity determined by means of a pH meter equipped with an automatic burette. For each product and for each dose tested, the percentage inhibition of gastric acid secretion is determined relative to the control batch.

[2] = Acute toxicity in mice (oral LD50, Litchfield and Wilcoxon); conditions: mouse, in vivo, suspended in 5% gum arabic
Protocol: Method of Litchfield and wilcoxon [Litchfield, J. T. and Wilcoxon, E. J., H. Pharmacol. Exp. Therap., 96, 19-113 (1949)].
The product is administered orally, suspended in 5% gum arabic in double-distilled water. The volume administered is 10 ml/kg. The fifty percent lethal dose (LD50) is calculated according to the method cited.

Row | Structure (SMILES) | ED50 [1] [mg/kg] | inhibition in vivo at 40 mg/kg [1] [%] | LD50 ([2]; female mice) [mg/kg] | LD50 ([2]; male mice) [mg/kg]
1 | c1cnc(SCc2nc3ccccc3[nH]2)nc1 [Example 1, 2-(2-benzimidazolylmethylthio)pyrimidine] | 13 | 98 | 2700 | 3200
2 | Cc1cc(C)nc(SCc2nc3ccccc3[nH]2)n1 [Example 3] | 16 | 88 | > 3200 | > 3200
3 | O=[N+]([O-])c1ccc(SCc2nc3ccccc3[nH]2)nc1 [Example 4] | 21 | 74 | – | –
4 | Cc1cc2nc(CSc3ccccn3)[nH]c2cc1C [Example 6, 5,6-dimethyl-2-(2-pyridylthiomethyl)benzimidazole] | 19 | 92 | – | –
5 | [O-][n+]1ccccc1SCc1nc2ccccc2[nH]1 [Example 7] | 19 | 95 | – | –
6 | O=C(c1ccccc1)c1ccc2nc(CSc3ccccn3)[nH]c2c1 [Example 10, 5-benzoyl-2-(2-pyridylthiomethyl)benzimidazole] | 14 | 93 | – | –
7 | O=C(c1ccccc1)c1ccc2nc(C[S+]([O-])c3ccccn3)[nH]c2c1 (centres unmarked) [Example 27, 5-benzoyl-2-(2-pyridylsulfinylmethyl)benzimidazole] | 7 | 95 | 3200 | 3200
8 | [O-][S+](Cc1nc2ccccc2[nH]1)c1ccccn1 (centres unmarked) [Example 28, 2-(2-pyridylsulfinylmethyl)benzimidazole] | 8 | 90 | 3200 | 3200
9 | O=[N+]([O-])c1ccc([S+]([O-])Cc2nc3ccccc3[nH]2)nc1 (centres unmarked) [Example 29] | 4 | 90 | 2400 | 2400
10 | Cc1cc2nc(C[S+]([O-])c3ccccn3)[nH]c2cc1C (centres unmarked) [Example 31] | 15 | 96 | > 6400 | > 6400
11 | [O-][S+](Cc1nc2cc(Cl)ccc2[nH]1)c1ccccn1 (centres unmarked) [Example 32] | 17 | 92 | – | –
12 | Cc1cnc([S+]([O-])Cc2nc3cc(C(=O)c4ccccc4)ccc3[nH]2)c(C)c1 (centres unmarked) [Example 41] | 10 | 80 | – | –
13 | Cc1ccnc([S+]([O-])Cc2nc3cc(C(=O)c4ccccc4)ccc3[nH]2)c1 (centres unmarked) [Example 44] | 10 | 66 | – | –
14 | O=S(=O)(Cc1nc2ccc(Cl)cc2[nH]1)c1ccccn1 [Example 54, 5-chloro-2-(2-pyridylsulfonylmethyl)benzimidazole] | 24 | 70 | – | –
15 | Cn1c(C[S+]([O-])c2ccccn2)nc2cc(C(=O)c3ccccc3)ccc21 (centres unmarked) [Example 60, 5-benzoyl-1-methyl-2-(2-pyridylsulfinylmethyl)benzimidazole] | 21 | 75 | – | –
16 | CCOC(=O)n1c(C[S+]([O-])c2ccccn2)nc2ccc(C(=O)c3ccccc3)cc21 (centres unmarked) [Example 63, 6-benzoyl-1-carboxyethyl-2-(2-pyridylsulfinylmethyl)benzimidazole] | 16 | 81 | – | –

Source: patent publication US4791114A, “2-Benzimidazolylalkylthio (or -sulfinyl or -sulfonyl) derivatives, their preparation and their application as medicinal products” (501 Laboratorios Del, Dr. Esteve, priority 1986, dated 1988)
